In patent US10842785B2, “PIM kinase inhibitors in combination with RNA splicing modulators/inhibitors for treatment of cancers” (UNIVERSITY OF MARYLAND, BALTIMORE COUNTY, priority 2016, dated 2020):

Assays:
Type in all cases: cell-based
[1] = tested on: EOL1 cells; experiment: Microarray (Affymetrix HTA 2.0) profiling of alternative splicing changes in EOL1 cells
Method: Due to the large number of splicing factors as PIM substrates, a more globally spread regulation of splicing by PIM kinases was envisioned. As such, a microarray approach was chosen to profile the entire transcriptome for changes in alternative splicing, due to inhibition of PIM kinase activity. MOLM16 cells were treated with DMSO/AZD1208 (1 μM) (pan-PIM inhibitor) for 6 hours. This experiment was performed in triplicates and RNA was run on a bioanalyzer to confirm sample intergrity, as outline in FIG. 3. A similar procedure was used for analysis of both MOLM16 and EOL1 cells. After 1 μM AZD1208 treatment for 6 hours, cells were harvested, and total RNA was isolated. The RNA quality was confirmed using a bio-analyzer. High quality RNA samples were further processed and hybridized to Affymetrix HTA 2.0 microarrays. The results obtained were processed using Affymetrix expression console and transcriptome analysis console (TAC) software. […] Similar experiment was also performed for EOL1 cells. […] Each point represents a unique probe selection region and the splicing index values for MOLM16 (X axis) and EOL1 cells (Y axis) are shown. All the points in +X+Y and −X−Y quadrants are splicing changes consistent with directionality of the change. […] Microsoft Excel functions were used to identify the overlap between these lists of splicing changes. […] When the directionality of these changes was considered, it was noted that most of these changes were also consistantly in the same direction (all but 39 out of 2599).

[2] = tested on: SR protein phosphorylation; experiment: Western blot using phospho-SR protein antibody; conditions: MOLM16 and EOL1 cells, versus DMSO treated controls
Method: MOLM16 and EOL1 cells were treated with AZD1208 or SRPIN340 for indicated concentration and time. Cells lysates from treated cells were used for western blot analysis.
Phosphorylation of splicing factors is known to play a role in regulation of splicing. Phosphorylation of splicing factors called serine arginine rich proteins (SR proteins) is known to regulate their function and localization. Serine arginine rich protein kinases (SRPK1 and SRPK2) phosphorylate these proteins and inhibition of SRPK activity using the small molecule modulator SRPIN340 leads to reduction in phosphorylation. The level of SR protein phosphorylation can be visualized using phospho-SR protein antibody. It was investigated to determine if PIM kinases regulate SRPK activity to indirectly lead to changes in splicing. […] Thus, it was concluded that the SRPK activity was not affected by PIM kinase inhibition.

[3] = tested on: MCL1 splice variants; experiment: Taqman qRT-PCR for MCL1 splice variants in MOLM16 cells; conditions: MOLM16, 1 μM, 6 hrs
Source text: (§1) Control=DMSO treated. […] Arrow indicate bands that change after AZD1208 treatment.
(§2) A few targets from the microarray data were chosen, that being, ones that were affected by PIM kinase inhibition. The procedure was manual curation of data, followed by reference seq analysis of splice variants to determine avalibilty of sequence information. Initially, changes in splice variants of a known apoptotic regulator, MCL1 were validated. The smaller isoform of MCL1 is pro-apototic, while the longer isoform has anti-apototic functions.

[4] = tested on: MOLM16 cells; experiment: MTT assay (number of live cells), MOLM16 cells, single inhibitors and combination, Compusyn CI; conditions: 48 hours
Method: (§3) General experimental procedure: 10,000 (MOLM16) or 20,000 (EOL1) cells were seeded per well in 96-well plates. After culturing overnight, AZD1208 and/or Pladienolide B/SRPIN340 were added to wells in quadruplicates at 5 different concentrations. Different ratios between AZD1208 and Pladienolide B were tried in MOLM16 and EOL1 cells. At 48 hours the MTT metabolism indicative of number of live cells was measured by MTT assay (Promega, Cat: G4000). The resulting values were used to evaluate the Fa (fraction affected) values, which were plugged into the Compusyn software to calculate the combination indices (CI values) at ED50, ED75, ED90 and ED95 (ED—Effective dose of combination).
These values of drug dose and effect (fraction of cells affected by the treatment—FA values) were input into the Compusyn software to estimate the interaction between the two drugs.

[5] = tested on: CHAC1, NFYA and Cog5; experiment: RT-PCR for splice variants of CHAC1, NFYA and Cog5 in MOLM16 cells; conditions: MOLM16, 1 μM, 6 hrs
Source text: as §1, §2

[6] = tested on: EOL1 cells; experiment: MTT assay (number of live cells), EOL1 cells, single inhibitors and combination, Compusyn CI; conditions: 48 hours
Method: as §3
To further confirm the finding in MOLM16 cells, it was tested whether the combination of AZD1208 and Pladienolide B is synergistic in another AML cell line—EOL1. Different ratios between AZD1208 and Pladienolide B were tested to identify the ideal ratio that provides maximum synergy.

[7] = tested on: MOLM16 cells; experiment: Microarray (Affymetrix HTA 2.0) profiling of alternative splicing changes in MOLM16 cells; conditions: MOLM16, 1 μM, 6 hours
Method: Due to the large number of splicing factors as PIM substrates, a more globally spread regulation of splicing by PIM kinases was envisioned. As such, a microarray approach was chosen to profile the entire transcriptome for changes in alternative splicing, due to inhibition of PIM kinase activity. MOLM16 cells were treated with DMSO/AZD1208 (1 μM) (pan-PIM inhibitor) for 6 hours. This experiment was performed in triplicates and RNA was run on a bioanalyzer to confirm sample intergrity, as outline in FIG. 3. A similar procedure was used for analysis of both MOLM16 and EOL1 cells. After 1 μM AZD1208 treatment for 6 hours, cells were harvested, and total RNA was isolated. The RNA quality was confirmed using a bio-analyzer. High quality RNA samples were further processed and hybridized to Affymetrix HTA 2.0 microarrays. The results obtained were processed using Affymetrix expression console and transcriptome analysis console (TAC) software. […] Similar experiment was also performed for EOL1 cells. […] Each point represents a unique probe selection region and the splicing index values for MOLM16 (X axis) and EOL1 cells (Y axis) are shown. All the points in +X+Y and −X−Y quadrants are splicing changes consistent with directionality of the change. […] Microsoft Excel functions were used to identify the overlap between these lists of splicing changes. […]

[8] = tested on: MCL1 splice variants; experiment: Taqman qRT-PCR for MCL1 splice variants in OCI-M1 cells; conditions: 1 μM, 6 hrs
Source text: as §1, §2

N[C@@H]1CCCN(c2c(/C=C3/SC(=O)NC3=O)cccc2-c2ccccc2)C1 [AZD1208, (5E)-5-[[2-[(3R)-3-aminopiperidin-1-yl]-3-phenylphenyl]methylidene]-1,3-thiazolidine-2,4-dione]
changes in splicing after PIM kinase inhibition ([1]; EOL1, 1 μM, 6 hrs.): widespread changes were observed in splicing | overlapping splicing changes not in the same direction ([1]; out of 2599 changes shared by MOLM16 and EOL1, 1 μM, 6 hours): 39 | splicing changes observed in similar probe selection regions ([1]; overlap between MOLM16 and EOL1 lists, 1 μM, 6 hours): 2599 | SR protein phosphorylation [2]: does not change SR protein phosphorylation | level of shorter isoform of MCL1 [3]: specifically and significantly reduces | Effect (fraction of cells affected, FA) ([4]; MOLM16, SRPIN340 testing Trial 1, 0.03 μM): 0.396 | Effect (fraction of cells affected, FA) ([4]; MOLM16, SRPIN340 testing Trial 1, 0.06 μM): 0.521 | Effect (fraction of cells affected, FA) ([4]; MOLM16, SRPIN340 testing Trial 1, 0.12 μM): 0.628 | Effect (fraction of cells affected, FA) ([4]; MOLM16, Trial 1, 0.024 μM): 0.415 | Effect (fraction of cells affected, FA) ([4]; MOLM16, Trial 1, 0.048 μM): 0.471 | Effect (fraction of cells affected, FA) ([4]; MOLM16, Trial 1, 0.072 μM): 0.564 | Effect (fraction of cells affected, FA) ([4]; MOLM16, Trial 1, 0.096 μM): 0.594 | Effect (fraction of cells affected, FA) ([4]; MOLM16, Trial 1, 0.12 μM): 0.614 | Effect (fraction of cells affected, FA) ([4]; MOLM16, Trial 2, 0.024 μM): 0.337 | Effect (fraction of cells affected, FA) ([4]; MOLM16, Trial 2, 0.048 μM): 0.478 | Effect (fraction of cells affected, FA) ([4]; MOLM16, Trial 2, 0.072 μM): 0.534 | Effect (fraction of cells affected, FA) ([4]; MOLM16, Trial 2, 0.096 μM): 0.566 | Effect (fraction of cells affected, FA) ([4]; MOLM16, Trial 2, 0.12 μM): 0.622 | Effect (fraction of cells affected, FA) ([4]; MOLM16, Trial 3, 0.024 μM): 0.344 | Effect (fraction of cells affected, FA) ([4]; MOLM16, Trial 3, 0.048 μM): 0.455 | Effect (fraction of cells affected, FA) ([4]; MOLM16, Trial 3, 0.072 μM): 0.524 | Effect (fraction of cells affected, FA) ([4]; MOLM16, Trial 3, 0.096 μM): 0.554 | Effect (fraction of cells affected, FA) ([4]; MOLM16, Trial 3, 0.12 μM): 0.606 | changes in splice variants of CHAC1, NFYA and Cog5 [5]: in agreement with the microarray data | Effect (fraction of cells affected, FA) ([6]; EOL1, Trial 1, 0.024 μM): 0.395 | Effect (fraction of cells affected, FA) ([6]; EOL1, Trial 1, 0.048 μM): 0.529 | Effect (fraction of cells affected, FA) ([6]; EOL1, Trial 1, 0.072 μM): 0.675 | Effect (fraction of cells affected, FA) ([6]; EOL1, Trial 1, 0.096 μM): 0.684 | Effect (fraction of cells affected, FA) ([6]; EOL1, Trial 1, 0.12 μM): 0.680 | Effect (fraction of cells affected, FA) ([6]; EOL1, Trial 2, 0.024 μM): 0.432 | Effect (fraction of cells affected, FA) ([6]; EOL1, Trial 2, 0.048 μM): 0.587 | Effect (fraction of cells affected, FA) ([6]; EOL1, Trial 2, 0.072 μM): 0.650 | Effect (fraction of cells affected, FA) ([6]; EOL1, Trial 2, 0.096 μM): 0.683 | Effect (fraction of cells affected, FA) ([6]; EOL1, Trial 2, 0.12 μM): 0.698 | Effect (fraction of cells affected, FA) ([6]; EOL1, Trial 3, 0.024 μM): 0.373 | Effect (fraction of cells affected, FA) ([6]; EOL1, Trial 3, 0.048 μM): 0.523 | Effect (fraction of cells affected, FA) ([6]; EOL1, Trial 3, 0.072 μM): 0.600 | Effect (fraction of cells affected, FA) ([6]; EOL1, Trial 3, 0.096 μM): 0.633 | Effect (fraction of cells affected, FA) ([6]; EOL1, Trial 3, 0.12 μM): 0.642 | gene products with changes in splicing indices [7]: > 5000 | splicing events with changes in splicing indices [7]: > 10,000 | level of both MCL1 splice variants [8]: did not show any change
